# How the values were obtained:
# [1] = test system: Escherichia coli; experiment: Antimicrobial activity against Escherichia coli assessed as zone of inhibition incubated for 24 hrs by disc diffusion method; type: functional
# [2] = test system: Shigella flexneri; experiment: Antimicrobial activity against Shigella flexneri assessed as zone of inhibition incubated for 24 hrs by disc diffusion method; type: functional
# [3] = test system: Staphylococcus aureus; experiment: Antimicrobial activity against Staphylococcus aureus assessed as zone of inhibition incubated for 24 hrs by disc diffusion method; type: functional
# [4] = test system: Aspergillus niger; experiment: Antimicrobial activity against Aspergillus niger assessed as zone of inhibition incubated for 48 hrs by disc diffusion method; type: functional
# [5] = test system: Bacillus subtilis; experiment: Antimicrobial activity against Bacillus subtilis assessed as zone of inhibition incubated for 24 hrs by disc diffusion method; type: functional
# [6] = test system: Candida albicans; experiment: Antimicrobial activity against Candida albicans assessed as zone of inhibition incubated for 48 hrs by disc diffusion method; type: functional
# [7] = test system: Candida parapsilosis; experiment: Antifungal activity against Candida parapsilosis assessed as inhibition of fungal growth incubated for 24 hrs by microplate reader assay; type: functional; conditions: Lodderomyces parapsilosis
# [8] = test system: Candida albicans; experiment: Antifungal activity against Candida albicans assessed as inhibition of fungal growth incubated for 24 hrs by microplate reader assay; type: functional
# [9] = test system: Nakaseomyces glabratus; experiment: Antifungal activity against Candida glabrata assessed as inhibition of fungal growth incubated for 24 hrs by microplate reader assay; type: functional
# [10] = test system: Escherichia coli; experiment: Antibacterial activity against Escherichia coli ATCC 25922 assessed as zone of inhibition at 40 ug/ml incubated for 24 hrs by disk diffusion method; type: functional; conditions: read-out: IZ
# [11] = test system: Klebsiella pneumoniae; experiment: Antibacterial activity against Klebsiella pneumoniae ATCC 13883 assessed as zone of inhibition at 40 ug/ml incubated for 24 hrs by disk diffusion method; type: functional; conditions: read-out: IZ
# [12] = test system: Staphylococcus aureus; experiment: Antibacterial activity against Staphylococcus aureus ATCC 6538 assessed as zone of inhibition at 40 ug/ml incubated for 24 hrs by disk diffusion method; type: functional; conditions: read-out: IZ
# [13] = test system: Bacillus subtilis; experiment: Antibacterial activity against Bacillus subtilis ATCC 6633 assessed as zone of inhibition at 40 ug/ml incubated for 24 hrs by disk diffusion method; type: functional; conditions: read-out: IZ
# [14] = test system: Pasteurella multocida; experiment: Antibacterial activity against Pasteurella multocida assessed as inhibition of bacterial growth by agar well diffusion method; type: functional
# [15] = test system: Bacillus subtilis; experiment: Antibacterial activity against Bacillus subtilis assessed as inhibition of bacterial growth by agar well diffusion method; type: functional
# [16] = test system: Bacillus subtilis; experiment: Antibacterial activity against Bacillus subtilis NRS-744 assessed as inhibition of bacterial growth incubated for 18 to 24 hrs by microbroth dilution method; type: functional; conditions: time 18-24 hrs
# [17] = test system: Staphylococcus aureus; experiment: Antibacterial activity against Staphylococcus aureus NRRL B-767 assessed as inhibition of bacterial growth incubated for 18 to 24 hrs by microbroth dilution method; type: functional; conditions: time 18-24 hrs
# [18] = test system: HeLa; experiment: Cytotoxicity against human HeLa cells incubated for 48 hrs by sulforhodamine B assay; type: functional
# [19] = test system: A549; experiment: Cytotoxicity against human A549 cells incubated for 48 hrs by sulforhodamine B assay; type: functional
# [20] = test system: Salmonella typhimurium; experiment: Antimicrobial activity against Salmonella typhimurium assessed as inhibition of microbial growth incubated for 18 to 24 hrs by agar broth microplate assay; type: functional, Salmonella enterica subsp. enterica serovar Typhimurium; conditions: Salmonella enterica; time 18-24 hrs; read-out: MIC100
# [21] = test system: Staphylococcus aureus; experiment: Antimicrobial activity against methicillin-resistant Staphylococcus aureus assessed as inhibition of microbial growth incubated for 18 to 24 hrs by agar broth microplate assay; type: functional; conditions: time 18-24 hrs, read-out: MIC100
# [22] = test system: Candida albicans; experiment: Antimicrobial activity against Candida albicans assessed as inhibition of microbial growth incubated for 18 to 24 hrs by agar broth microplate assay; type: functional; conditions: time 18-24 hrs, read-out: MIC100
# [23] = test system: Pichia kudriavzevii; experiment: Antifungal activity against Candida krusei ATCC 6258 assessed as inhibition of fungal growth incubated for 24 hrs by microtiter plate reader assay; type: functional
# [24] = test system: Saccharomyces cerevisiae; experiment: Antifungal activity against Saccharomyces cerevisiae ATCC 9763 assessed as inhibition of fungal growth incubated for 24 hrs by microtiter plate reader assay; type: functional
# [25] = test system: Pseudomonas aeruginosa; experiment: Antibacterial activity against Pseudomonas aeruginosa assessed as inhibition of bacterial growth by broth microdilution method; type: functional
# [26] = test system: Candida albicans; experiment: Antifungal activity against Candida albicans clinical isolate DSY294 assessed as inhibition of fungal growth by broth microdilution method; type: functional
# [27] = test system: Pichia kudriavzevii; experiment: Antifungal activity against Candida krusei MTCC 9215 assessed as inhibition of fungal growth by broth microdilution method; type: functional
# [28] = test system: Candida tropicalis; experiment: Antifungal activity against Candida tropicalis MTCC 9038 assessed as inhibition of fungal growth by broth microdilution method; type: functional
# [29] = test system: Candida albicans; experiment: Antifungal activity against Candida albicans SC5314 assessed as inhibition of fungal growth by broth microdilution method; type: functional
# [30] = test system: Candida albicans; experiment: Antifungal activity against Candida albicans clinical isolate Gu5 assessed as inhibition of fungal growth by broth microdilution method; type: functional
# [31] = test system: Candida albicans; experiment: Antifungal activity against Candida albicans clinical isolate Gu4 assessed as inhibition of fungal growth by broth microdilution method; type: functional
# [32] = test system: Nakaseomyces glabratus; experiment: Antifungal activity against Candida glabrata MTCC 3814 assessed as inhibition of fungal growth by broth microdilution method; type: functional
# [33] = test system: Escherichia coli; experiment: Antibacterial activity against Escherichia coli assessed as inhibition of bacterial growth by broth microdilution method; type: functional
# [34] = test system: Staphylococcus aureus; experiment: Antibacterial activity against Staphylococcus aureus assessed as inhibition of bacterial growth by broth microdilution method; type: functional
# [35] = test system: Candida albicans; experiment: Antifungal activity against Candida albicans clinical isolate DSY296 assessed as inhibition of fungal growth by broth microdilution method; type: functional
# [36] = test system: Candida albicans; experiment: Antifungal activity against Candida albicans MTCC 3017 assessed as inhibition of fungal growth by broth microdilution method; type: functional
# [37] = test system: Klebsiella pneumoniae; experiment: Antibacterial activity against Klebsiella pneumoniae assessed as inhibition of bacterial growth by broth microdilution method; type: functional
# [38] = test system: Candida parapsilosis; experiment: Antifungal activity against Candida parapsilosis MTCC 7043 assessed as inhibition of fungal growth by broth microdilution method; type: functional; conditions: Lodderomyces parapsilosis
# [39] = test system: Escherichia coli; experiment: Antibacterial activity against Escherichia coli PTCC 1330 assessed as inhibition of bacterial growth by serial dilution assay; type: functional
# [40] = test system: Staphylococcus aureus; experiment: Antibacterial activity against Staphylococcus aureus PTCC 1133 assessed as inhibition of bacterial growth by serial dilution assay; type: functional
# [41] = test system: Staphylococcus aureus; experiment: Antibacterial activity against Staphylococcus aureus assessed as zone of inhibition by filter paper disk-agar diffusion method; type: functional
# [42] = test system: Mycobacterium tuberculosis; experiment: Antibacterial activity against Mycobacterium tuberculosis assessed as inhibition of bacterial growth; type: functional
# [43] = test system: Bacillus cereus; experiment: Antibacterial activity against Bacillus cereus assessed as inhibition of bacterial growth; type: functional, organism-based
smiles,measurement,setting,value
Cn1c2ccccc2c2cc(-c3cc(-c4ccccn4)nc(N)n3)ccc21,inhibition zone (IZ),[1],10 mm
same,inhibition zone (IZ),[2],18 mm
same,inhibition zone (IZ),[3],18 mm
same,inhibition zone (IZ),[4],12 mm
same,inhibition zone (IZ),[5],18 mm
same,inhibition zone (IZ),[6],15 mm
COc1ccc(CNCCCn2c3ccccc3c3ccccc32)cc1,MIC80,[7],8 µg/mL
same,MIC80,[8],16 µg/mL
same,MIC80,[9],4 µg/mL
CCn1c2ccccc2c2cc(-c3cc(=O)c4ccccc4o3)ccc21,zone of inhibition at 40 µg/mL,[10],29 mm
same,zone of inhibition at 40 µg/mL,[11],27 mm
same,zone of inhibition at 40 µg/mL,[12],24 mm
same,zone of inhibition at 40 µg/mL,[13],25 mm
C/C(=N/Nc1ccccc1)C1CCCc2c1n(C)c1c([N+](=O)[O-])cc([N+](=O)[O-])cc21 (stereo not drawn),MIC,[14],1.8 µg/mL
same,MIC,[15],1.8 µg/mL
CCn1c2ccccc2c2cc(NC(=O)COc3cccc4cccnc34)ccc21,MIC,[16],31.2 µg/mL
same,MIC,[17],31.2 µg/mL
CC(C)=CCc1ccc2c([nH]c3cc(O)c(C=O)cc32)c1O,IC,[18],1.91 µg/mL
same,IC,[19],5.25 µg/mL
O=c1[nH]n(-c2ccccc2)c(=O)c2cc3c(cc12)[nH]c1ccc([N+](=O)[O-])cc13,MIC,[20],> 512 µg/mL
same,MIC,[21],12 µg/mL
same,MIC,[22],32 µg/mL
FC(F)(F)Oc1ccc2c3c([nH]c2c1)C(NCc1ccc(Br)cc1)CCC3 (stereo not drawn),MIC50,[23],4.7 µM
same,MIC50,[24],1.5 µM
COc1cc2c(cc1O)[nH]c1c3c(c(C)cc12)OC(C)(C)C=C3,MIC90,[25],> 100 µg/mL
same,MIC90,[26],12.5 µg/mL
same,MIC90,[27],12.5 µg/mL
same,MIC90,[28],12.5 µg/mL
same,MIC90,[29],12.5 µg/mL
same,MIC90,[30],12.5 µg/mL
same,MIC90,[31],12.5 µg/mL
same,MIC90,[32],12.5 µg/mL
same,MIC90,[33],> 100 µg/mL
same,MIC90,[34],3.12 µg/mL
same,MIC90,[35],12.5 µg/mL
same,MIC90,[36],12.5 µg/mL
same,MIC90,[37],3.12 µg/mL
same,MIC90,[38],12.5 µg/mL
CCC(O)Cn1cc(Cn2c3ccccc3c3ccccc32)nn1 (stereo not drawn),MIC50,[39],3.12 µg/mL
same,MIC50,[40],1.56 µg/mL
COc1cc2c(cc1O)[nH]c1cc(O)c(C=O)cc12 [CLAULANSINE J],inhibition zone (IZ),[41],14.2 mm
Cc1cc2c([nH]c3ccc4c(c32)C=CC(C)(C)O4)c(-c2c(O)c(C)cc3c2[nH]c2ccc4c(c23)C=CC(C)(C)O4)c1O [CLAUSENAWALLINE A],MIC,[42],12.5 µg/mL
Cc1cc2c([nH]c3ccccc32)c2c1OC(C)(C)C=C2 [GRINIMIBINE],IC50,[43],3.4 µM
